# Experimental data from US20220204491A1, “FXR (NR1H4) MODULATING COMPOUNDS” (Gilead Sciences, Inc., priority 2019, published 2022).
# Legend:
# [1] = molecular target: T1, FXR ligand binding domain (Homo sapiens, UniProt Q96RI1); test: Mammalian one hybrid (M1H) Gal4 reporter assay in HEK293 cells; type: cell-based; conditions: Gal4-FXR-LBD luciferase reporter, 16 hours
# T1 construct: expressed in transfected cells; host or cells: HEK293 (DSMZ), transient transfection of pCMV-BD-FXR-LBD, pFR-Luc and pRL-CMV
# T1 sequence (Q96RI1 187-472 isoform Q96RI1-2): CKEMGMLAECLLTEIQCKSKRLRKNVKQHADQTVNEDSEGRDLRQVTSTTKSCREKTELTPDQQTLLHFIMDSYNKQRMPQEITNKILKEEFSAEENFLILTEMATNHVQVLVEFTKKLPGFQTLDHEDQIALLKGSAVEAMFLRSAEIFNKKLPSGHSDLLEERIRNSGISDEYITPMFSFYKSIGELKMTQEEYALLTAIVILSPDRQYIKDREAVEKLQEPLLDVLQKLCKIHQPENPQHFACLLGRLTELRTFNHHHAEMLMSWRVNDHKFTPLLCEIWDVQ
# Description: Determination of a ligand mediated Gal4 promoter driven transactivation to quantify ligand binding mediated activation of FXR was performed as follows.
# The cDNA part encoding the FXR ligand binding domain was cloned into vector pCMV-BD (Stratagene) as a fusion to the yeast GAL4 DNA binding domain under the control of the CMV promoter. The amino acid boundaries of the ligand binding domain were amino acids 187-472 of Database entry NM_005123 (RefSeq). The plasmid pFR-Luc (Stratagene) was used as the reporter plasmid, containing a synthetic promoter with five tandem repeats of the yeast GAL4 binding sites, driving the expression of the Photinus pyralis (American firefly) luciferase gene as the reporter gene. In order to improve experimental accuracy the plasmid pRL-CMV (Promega) was cotransfected. pRL-CMV contains the constitutive CMV promoter, controlling the expression of the Renilla reniformis luciferase. All Gal4 reporter gene assays were done in HEK293 cells (obtained from DSMZ, Braunschweig, Germany) grown in MEM with L-Glutamine and Earle's BSS supplemented with 10% fetal bovine serum, 0.1 mM nonessential amino acids, 1 mM sodium pyruvate, and 100 units Penicillin/[…] per mL at about 37° C. in 5% CO2. Medium and supplements were obtained from Invitrogen. For the assay, 5×10^5 cells were plated per well in 96 well plates in 100 μl per well MEM without Phenol Red and L-Glutamine and with Earle's BSS supplemented with 10% charcoal/dextran treated FBS (HyClone, South Logan, Utah), 0.1 mM nonessential amino acids, 2 mM glutamine, 1 mM sodium pyruvate, and 100 units Penicillin/[…] per mL, incubated at about 37° C. in 5% CO2. The following day the cells were >90% confluence. […] Cells were incubated for additional 16 hours before firefly and renilla luciferase activities were measured sequentially in the same cell extract using a Dual-Light-Luciferase-Assay system (Dyer et al., Anal. Biochem. 2000, 282, 158-161). […]
# CYP2B6 = molecular target: T2, CYP2B6 (Homo sapiens, UniProt P20813); test: CYP2B6 inhibition in human liver microsomes (bupropion probe); type: in vitro ADME; conditions: human liver microsomes 0.1 mg/mL, bupropion 110 μM, 0.1-25 μM compound
# T2 construct: from tissue; host or cells: human liver microsomes
# T2 sequence (P20813 1-491): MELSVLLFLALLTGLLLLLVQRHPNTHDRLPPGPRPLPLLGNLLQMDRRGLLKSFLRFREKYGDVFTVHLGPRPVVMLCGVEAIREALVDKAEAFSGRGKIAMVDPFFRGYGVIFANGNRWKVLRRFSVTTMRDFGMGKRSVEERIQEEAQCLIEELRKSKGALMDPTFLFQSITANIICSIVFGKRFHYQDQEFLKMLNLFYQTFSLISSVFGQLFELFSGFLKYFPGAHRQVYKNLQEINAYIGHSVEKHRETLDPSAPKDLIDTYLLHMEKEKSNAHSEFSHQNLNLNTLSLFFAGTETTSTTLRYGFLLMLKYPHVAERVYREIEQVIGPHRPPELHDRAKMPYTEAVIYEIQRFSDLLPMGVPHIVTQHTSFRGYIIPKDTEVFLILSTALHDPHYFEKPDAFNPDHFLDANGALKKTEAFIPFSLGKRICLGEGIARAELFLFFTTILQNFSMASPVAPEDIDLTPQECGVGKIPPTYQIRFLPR
# Description: The compound of Formula (I) (Example 1) was assessed for CYP2C8, CYP3A4, and CYP2B6 inhibition and was compared against Comparative Example 1.
# Six test compound concentrations (0.1, 0.25, 1, 2.5, 10, 25 μM in DMSO; final DMSO concentration 0.3%) are incubated with human liver microsomes (0.1 mg/mL) and NADPH (1 mM) in the presence of the probe substrate bupropion (110 μM) for 5 min at 37° C. The selective CYP2B6 inhibitor, ticlopidine, is screened alongside the test compounds as a positive control.
# For each of the CYP2B6, CYP2C8, and CYP3A4 incubations, the reactions were terminated by methanol addition. The samples were then centrifuged and analyzed by LC-MS/MS. Formic acid in deionised water (final concentration 0.1%) containing internal standard was added to the final sample prior to analysis. A decrease in the formation of the metabolites compared to vehicle control was used to calculate IC50.
EC50 [1] [nM],CYP2B6 inhibition (CYP2B6),Structure (SMILES)
1.2,inhibited CYP2B6,"O=C(O)c1cnc(N2CC(O)(c3ccc(OCc4c(-c5c(Cl)cc(F)cc5Cl)noc4C4CC4)cc3Cl)C2)c(F)c1 [Comparative Example 1, 6-(3-(2-chloro-4-((5-cyclopropyl-3-(2,6-dichloro-4-fluorophenyl)isoxazol-4-yl)methoxy)phenyl)-3-hydroxyazetidin-1-yl)-5-fluoronicotinic acid]"
2,–,O=C(O)c1ccc(N2CC(O)(c3ccc(OCc4c(-c5c(Cl)cccc5Cl)noc4C4CC4)cc3Cl)C2)nc1 [Comparative Example 2]
5.5,did not inhibit CYP2B6,"O=C(O)c1ccc(N2CC(O)(c3ccc(OCc4c(-c5c(Cl)cc(F)cc5Cl)noc4C4CC4)cc3Cl)C2)nc1 [Example 1, 6-(3-(2-chloro-4-((5-cyclopropyl-3-(2,6-dichloro-4-fluorophenyl)isoxazol-4-yl)methoxy)phenyl)-3-hydroxyazetidin-1-yl)nicotinic acid]"
